This is an account of results in EP4553080A1, “NUCLEOSIDE DERIVATIVES AS ANTIVIRAL AGENTS AGAINST CORONAVIRUSES” (Ustav Organicke Chemie a Biochemie AV CR, v.v.i., priority 2023, dated 2025).

Molecules are shown by their SMILES.

The target of this assay is nsp14 methyltransferase from SARS-CoV-2 (Severe acute respiratory syndrome coronavirus 2, UniProt P0DTD1). In words: Nsp14 MTase activity inhibition in vitro (EchoMS assay). It counts as biochemical. The note with it: recombinant nsp14 protein expressed in E. coli; dose-response curve.
For orientation: IC50 means the concentration that gives 50% inhibition. With `Cn1ncc(-c2ccccc2)c1CSC[C@H]1O[C@@H](n2ccc3c(N)ncnc32)[C@H](O)[C@@H]1O` [Compound 60c, (2R,3R,4S,5S)-2-(4-Amino-7H-pyrrolo[2,3-d]pyrimidin-7-yl)-5-((((1-methyl-4-phenyl-1H-pyrazol-5-yl)methyl)thio)methyl)tetrahydrofuran-3,4-diol], the IC50 was in the range of 30 to 100 nM.

For the molecule `Cc1ccc(-c2onc(C)c2CSC[C@H]2O[C@@H](n3cc(-c4ccc(C#N)cc4)c4c(N)ncnc43)[C@H](O)[C@@H]2O)cc1C` [Compound 235b, 4-(4-Amino-7-((2R,3R,4S,5S)-5-((((5-(3,4-dimethylphenyl)-3-methylisoxazol-4-yl)methyl)thio)methyl)-3,4-dihydroxytetrahydrofuran-2-yl)-7H-pyrrolo[2,3-d]pyrimidin-5-yl)benzonitrile], the IC50 is 30 to 100 nM.

With `Cc1ncnc(-c2ccccc2)c1CSC[C@H]1O[C@@H](n2cc(I)c3c(N)ncnc32)[C@H](O)[C@@H]1O` [Compound 246, (2R,3R,4S,5S)-2-(4-Amino-5-iodo-7H-pyrrolo[2,3-d]pyrimidin-7-yl)-5-((((4-methyl-6-phenylpyrimidin-5-yl)methyl)thio)methyl)tetrahydrofuran-3,4-diol], the IC50 lay within 10 to 30 nM.

In the case of `Cc1noc(-c2ccccc2)c1CSC[C@H]1O[C@@H](n2cc(-c3ccco3)c3c(N)ncnc32)[C@H](O)[C@@H]1O` [Compound 153], the concentration for half-maximal inhibition (IC50) was 30 to 100 nM.

Regarding `Cc1noc(-c2ccccc2)c1CSC[C@H]1O[C@@H](n2cc(C3CCCCC3)c3c(N)ncnc32)[C@H](O)[C@@H]1O` [Compound 134b, (2R,3R,4S,5S)-2-(4-Amino-5-cyclohexyl-7H-pyrrolo[2,3-d]pyrimidin-7-yl)-5-((((3-methyl-5-phenylisoxazol-4-yl)methyl)thio)methyl)tetrahydrofuran-3,4-diol], the 50% inhibitory concentration (IC50) fell in the range of 100 to 500 nM.

As for `Cc1noc(-c2cccc3ccccc23)c1CSC[C@H]1O[C@@H](n2ccc3c(N)ncnc32)[C@H](O)[C@@H]1O` [Compound 100c, (2R,3R,4S,5S)-2-(4-Amino-7H-pyrrolo[2,3-d]pyrimidin-7-yl)-5-((((3-methyl-5-(naphthalen-1-yl)isoxazol-4-yl)methyl)thio)methyl)tetrahydrofuran-3,4-diol], the IC50 lay within 10 to 30 nM.

With `Cc1cc(C#N)cc(C)c1-c1cn([C@@H]2O[C@H](CSCc3c(C)noc3-c3ccccc3)[C@@H](O)[C@H]2O)c2ncnc(N)c12` [Compound 150, 4-(4-Amino-7-((2R,3R,4S,5S)-3,4-dihydroxy-5-((((3-methyl-5-phenylisoxazol-4-yl)methyl)thio)methyl)tetrahydrofuran-2-yl)-7H-pyrrolo[2,3-d]pyrimidin-5-yl)-3,5-dimethylbenzonitrile], the IC50 is 10 to 30 nM.

As for `Cc1noc(-c2ccccc2)c1CSC[C@H]1O[C@@H](n2cc(C#Cc3ccnnc3)c3c(N)ncnc32)[C@H](O)[C@@H]1O` [Compound 173b], the IC50 fell in the range of 10 to 30 nM.

As to `Cc1noc(-c2ccc3c(c2)OCO3)c1CSC[C@H]1O[C@@H](n2ccc3c(N)ncnc32)[C@H](O)[C@@H]1O` [Compound 96c, (2R,3R,4S,5S)-2-(4-Amino-7H-pyrrolo[2,3-d]pyrimidin-7-yl)-5-((((5-(benzo[d][1,3]dioxol-5-yl)-3-methylisoxazol-4-yl)methyl)thio)methyl)tetrahydrofuran-3,4-diol], the half-maximal inhibitory concentration (IC50) was 10 to 30 nM.

Take `Cc1noc(-c2ccccc2)c1CSC[C@H]1O[C@@H](n2cc(CC3CCCCC3)c3c(N)ncnc32)[C@H](O)[C@@H]1O` [Compound 135b, (2R,3R,4S,5S)-2-(4-Amino-5-(cyclohexylmethyl)-7H-pyrrolo[2,3-d]pyrimidin-7-yl)-5-((((3-methyl-5-phenylisoxazol-4-yl)methyl)thio)methyl)tetrahydrofuran-3,4-diol]: the concentration for half-maximal inhibition (IC50) fell in the range of 500 to 2000 nM.

Turning to `Cc1noc(-c2ccccc2)c1CSC[C@H]1O[C@@H](n2ccc3c(N)ncnc32)[C@H](O)[C@@H]1O` [Compound 47c, (2R,3R,4S,5S)-2-(4-Amino-7H-pyrrolo[2,3-d]pyrimidin-7-yl)-5-((((3-methyl-5-phenylisoxazol-4-yl)methyl)thio)methyl)tetrahydrofuran-3,4-diol], the IC50 fell in the range of 30 to 100 nM.

In the case of `Cc1noc(-c2ccccc2)c1CSC[C@H]1O[C@@H](n2cc(-c3ccc([N+](=O)[O-])nc3)c3c(N)ncnc32)[C@H](O)[C@@H]1O` [Compound 152, (2R,3R,4S,5S)-2-(4-Amino-5-(6-nitropyridin-3-yl)-7H-pyrrolo[2,3-d]pyrimidin-7-yl)-5-((((3-methyl-5-phenylisoxazol-4-yl)methyl)thio)methyl)tetrahydrofuran-3,4-diol], the IC50 lay in the range of 30 to 100 nM.

For `Cc1noc(-c2ccccc2)c1CSC[C@H]1O[C@@H](n2cc(C#Cc3ccccn3)c3c(N)ncnc32)[C@H](O)[C@@H]1O` [Compound 171b, (2R,3R,4S,5S)-2-(4-Amino-5-(pyridin-2-ylethynyl)-7H-pyrrolo[2,3-d]pyrimidin-7-yl)-5-((((3-methyl-5-phenylisoxazol-4-yl)methyl)thio)methyl)tetrahydrofuran-3,4-diol], the IC50 is 10 to 30 nM.

`Cc1n[nH]c(-c2ccccc2)c1CSC[C@H]1O[C@@H](n2ccc3c(N)ncnc32)[C@H](O)[C@@H]1O` [Compound 51c, (2R,3R,4S,5S)-2-(4-Amino-7H-pyrrolo[2,3-d]pyrimidin-7-yl)-5-((((3-methyl-5-phenyl-1H-pyrazol-4-yl)methyl)thio)methyl)tetrahydrofuran-3,4-diol]: the IC50 lay in the range of 100 to 500 nM.

As to `CCc1cn([C@@H]2O[C@H](CSCc3c(C)noc3-c3ccccc3)[C@@H](O)[C@H]2O)c2ncnc(N)c12` [Compound 142, (2R,3R,4S,5S)-2-(4-Amino-5-ethyl-7H-pyrrolo[2,3-d]pyrimidin-7-yl)-5-((((3-methyl-5-phenylisoxazol-4-yl)methyl)thio)methyl)tetrahydrofuran-3,4-diol], the IC50 fell in the range of 30 to 100 nM.

As for `Cc1noc(-c2ccccc2)c1CSC[C@H]1O[C@@H](n2cc(C#Cc3cnc4ccccc4c3)c3c(N)ncnc32)[C@H](O)[C@@H]1O` [Compound 176b, (2R,3R,4S,5S)-2-(4-Amino-5-(quinolin-3-ylethynyl)-7H-pyrrolo[2,3-d]pyrimidin-7-yl)-5-((((3-methyl-5-phenylisoxazol-4-yl)methyl)thio)methyl)tetrahydrofuran-3,4-diol], the IC50 lay in the range of 100 to 500 nM.

Consider `Cc1noc(-c2ccccc2)c1CSC[C@H]1O[C@@H](n2cc(-c3ccc4ccccc4c3)c3c(N)ncnc32)[C@H](O)[C@@H]1O` [Compound 148b, (2R,3R,4S,5S)-2-(4-Amino-5-(naphthalen-2-yl)-7H-pyrrolo[2,3-d]pyrimidin-7-yl)-5-((((3-methyl-5-phenylisoxazol-4-yl)methyl)thio)methyl)tetrahydrofuran-3,4-diol], for which the IC50 lay within 100 to 500 nM.

Turning to `Cc1noc(-c2ccccc2)c1CSC[C@H]1O[C@@H](n2cc(C#Cc3ccc(C(N)=O)cc3)c3c(N)ncnc32)[C@H](O)[C@@H]1O` [Compound 169b, 4-((4-Amino-7-((2R,3R,4S,5S)-3,4-dihydroxy-5-((((3-methyl-5-phenylisoxazol-4-yl)methyl)thio)methyl)tetrahydrofuran-2-yl)-7H-pyrrolo[2,3-d]pyrimidin-5-yl)ethynyl)benzamide], the IC50 is 30 to 100 nM.

On to `Cn1cnc(-c2ccccc2)c1CSC[C@H]1O[C@@H](n2cc(C#Cc3cncnc3)c3c(N)ncnc32)[C@H](O)[C@@H]1O` [Compound 237c, (2R,3R,4S,5S)-2-(4-Amino-5-(pyrimidin-5-ylethynyl)-7H-pyrrolo[2,3-d]pyrimidin-7-yl)-5-((((1-methyl-4-phenyl-1H-imidazol-5-yl)methyl)thio)methyl)tetrahydrofuran-3,4-diol], for which the IC50 lay within 30 to 100 nM.

For the molecule `Nc1ncnc2c1ccn2[C@@H]1O[C@H](CSCc2c(-c3ccccc3)noc2-c2ccccc2)[C@@H](O)[C@H]1O` [Compound 109c, (2R,3R,4S,5S)-2-(4-Amino-7H-pyrrolo[2,3-d]pyrimidin-7-yl)-5-((((3,5-diphenylisoxazol-4-yl)methyl)thio)methyl)tetrahydrofuran-3,4-diol], the IC50 is 100 to 500 nM.

Regarding `Cc1noc(-c2ccc3c(c2)OCO3)c1CSC[C@H]1O[C@@H](n2cc(-c3ccc(C#N)cc3)c3c(N)ncnc32)[C@H](O)[C@@H]1O` [Compound 236b], the IC50 was in the range of 10 to 30 nM.

Turning to `Cc1noc(-c2ccccc2)c1CSC[C@H]1O[C@@H](n2cc(CCc3cncnc3)c3c(N)ncnc32)[C@H](O)[C@@H]1O` [Compound 183, (2R,3R,4S,5S)-2-(4-Amino-5-(2-(pyrimidin-5-yl)ethyl)-7H-pyrrolo[2,3-d]pyrimidin-7-yl)-5-((((3-methyl-5-phenylisoxazol-4-yl)methyl)thio)methyl)tetrahydrofuran-3,4-diol], the IC50 lay within 30 to 100 nM.

Take `Cc1ncnc(-c2ccccc2)c1CSC[C@H]1O[C@@H](n2cc(-c3ccc(C#N)cc3)c3c(N)ncnc32)[C@H](O)[C@@H]1O` [Compound 232b, 4-(4-Amino-7-((2R,3R,4S,5S)-3,4-dihydroxy-5-((((4-methyl-6-phenylpyrimidin-5-yl)methyl)thio)methyl)tetrahydrofuran-2-yl)-7H-pyrrolo[2,3-d]pyrimidin-5-yl)benzonitrile]: the IC50 lay within 30 to 100 nM.

On to `CCc1onc(-c2ccccc2)c1CSC[C@H]1O[C@@H](n2ccc3c(N)ncnc32)[C@H](O)[C@@H]1O` [Compound 106c, (2R,3R,4S,5S)-2-(4-Amino-7H-pyrrolo[2,3-d]pyrimidin-7-yl)-5-((((5-ethyl-3-phenyllsoxazol-4-yl)methyl)thio)methyl)tetrahydrofuran-3,4-diol], for which the IC50 lay in the range of 100 to 500 nM.

Consider `Cc1noc(-c2ccccc2)c1CSC[C@H]1O[C@@H](n2cc(F)c3c(N)ncnc32)[C@H](O)[C@@H]1O` [Compound 128, (2R,3R,4S,5S)-2-(4-Amino-5-fluoro-7H-pyrrolo[2,3-d]pyrimidin-7-yl)-5-((((3-methyl-5-phenylisoxazol-4-yl)methyl)thio)methyl)tetrahydrofuran-3,4-diol], for which the IC50 was in the range of 100 to 500 nM.

On to `Nc1ncnc2c1ccn2[C@@H]1O[C@H](CSCc2cnsc2-c2ccccc2)[C@@H](O)[C@H]1O` [Compound 103c, (2R,3R,4S,5S)-2-(4-Amino-7H-pyrrolo[2,3-d]pyrimidin-7-yl)-5-((((5-phenylisothlazol-4-yl)methyl)thio)methyl)tetrahydrofuran-3,4-diol], for which the IC50 is 500 to 2000 nM.
